Data published in patent US11299501B2 (BRISTOL-MYERS SQUIBB COMPANY, priority 2017, dated 2022).

Experiments:
Format in all cases: cell-based
[1] = biological target: T1, human TLR7 (Homo sapiens, UniProt Q9NYK1); test: TLR7 inhibition reporter assay (HEK-Blue SEAP); conditions: cells overexpressing human TLR7, SEAP reporter, stimulated with gardiquimod 7.5 μM, 22 hour incubation
T1 construct: host or cells: HEK-Blue cells
T1 sequence (Q9NYK1 27-1049): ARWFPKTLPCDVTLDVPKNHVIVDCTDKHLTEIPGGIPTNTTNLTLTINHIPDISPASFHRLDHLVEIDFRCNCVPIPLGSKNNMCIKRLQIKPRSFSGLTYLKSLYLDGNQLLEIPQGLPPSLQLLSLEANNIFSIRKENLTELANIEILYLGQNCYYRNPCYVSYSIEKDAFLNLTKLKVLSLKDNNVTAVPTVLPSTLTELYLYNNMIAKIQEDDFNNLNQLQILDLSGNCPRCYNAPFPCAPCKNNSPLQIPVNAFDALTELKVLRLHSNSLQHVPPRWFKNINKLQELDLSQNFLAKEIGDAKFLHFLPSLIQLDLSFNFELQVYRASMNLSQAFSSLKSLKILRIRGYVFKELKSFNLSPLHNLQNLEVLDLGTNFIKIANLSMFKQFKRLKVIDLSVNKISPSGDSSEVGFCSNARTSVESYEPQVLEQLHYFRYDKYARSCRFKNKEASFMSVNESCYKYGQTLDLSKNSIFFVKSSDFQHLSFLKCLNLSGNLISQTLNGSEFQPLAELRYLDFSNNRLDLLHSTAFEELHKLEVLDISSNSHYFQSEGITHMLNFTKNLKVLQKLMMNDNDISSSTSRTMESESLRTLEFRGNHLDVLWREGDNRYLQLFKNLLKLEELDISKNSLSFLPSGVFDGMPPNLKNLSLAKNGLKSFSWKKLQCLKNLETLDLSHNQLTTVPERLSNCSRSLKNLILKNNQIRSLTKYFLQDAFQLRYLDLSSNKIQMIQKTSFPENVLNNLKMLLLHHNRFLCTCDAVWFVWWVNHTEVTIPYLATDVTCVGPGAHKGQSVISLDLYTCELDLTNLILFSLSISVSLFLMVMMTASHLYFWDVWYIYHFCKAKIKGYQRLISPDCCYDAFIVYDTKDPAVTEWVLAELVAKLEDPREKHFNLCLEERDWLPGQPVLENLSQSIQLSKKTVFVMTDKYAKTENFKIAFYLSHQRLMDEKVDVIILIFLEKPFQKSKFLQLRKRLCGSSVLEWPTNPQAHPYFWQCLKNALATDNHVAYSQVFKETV
Outline: (§1)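 HEK-Blue cells expressing human TLR7, TLR8 or TLR9 with NF-κB/AP-1-driven SEAP reporter pre-treated 30 min at room temperature with compound (0.05 nM–50 μM), then stimulated with gardiquimod 7.5 μM (TLR7), R848 15.9 μM (TLR8) or ODN2006 5 nM (TLR9). SEAP read after 22 h at 37 °C; % inhibition relative to agonist+DMSO and reference-inhibitor wells.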

[2] = biological target: T2, human TLR9 (Homo sapiens, UniProt Q9NR96); test: TLR9 inhibition reporter assay (HEK-Blue SEAP); conditions: cells overexpressing human TLR9, SEAP reporter, stimulated with ODN2006 5 nM, 22 hour incubation
T2 construct: host or cells: HEK-Blue cells
T2 sequence (Q9NR96 26-1032): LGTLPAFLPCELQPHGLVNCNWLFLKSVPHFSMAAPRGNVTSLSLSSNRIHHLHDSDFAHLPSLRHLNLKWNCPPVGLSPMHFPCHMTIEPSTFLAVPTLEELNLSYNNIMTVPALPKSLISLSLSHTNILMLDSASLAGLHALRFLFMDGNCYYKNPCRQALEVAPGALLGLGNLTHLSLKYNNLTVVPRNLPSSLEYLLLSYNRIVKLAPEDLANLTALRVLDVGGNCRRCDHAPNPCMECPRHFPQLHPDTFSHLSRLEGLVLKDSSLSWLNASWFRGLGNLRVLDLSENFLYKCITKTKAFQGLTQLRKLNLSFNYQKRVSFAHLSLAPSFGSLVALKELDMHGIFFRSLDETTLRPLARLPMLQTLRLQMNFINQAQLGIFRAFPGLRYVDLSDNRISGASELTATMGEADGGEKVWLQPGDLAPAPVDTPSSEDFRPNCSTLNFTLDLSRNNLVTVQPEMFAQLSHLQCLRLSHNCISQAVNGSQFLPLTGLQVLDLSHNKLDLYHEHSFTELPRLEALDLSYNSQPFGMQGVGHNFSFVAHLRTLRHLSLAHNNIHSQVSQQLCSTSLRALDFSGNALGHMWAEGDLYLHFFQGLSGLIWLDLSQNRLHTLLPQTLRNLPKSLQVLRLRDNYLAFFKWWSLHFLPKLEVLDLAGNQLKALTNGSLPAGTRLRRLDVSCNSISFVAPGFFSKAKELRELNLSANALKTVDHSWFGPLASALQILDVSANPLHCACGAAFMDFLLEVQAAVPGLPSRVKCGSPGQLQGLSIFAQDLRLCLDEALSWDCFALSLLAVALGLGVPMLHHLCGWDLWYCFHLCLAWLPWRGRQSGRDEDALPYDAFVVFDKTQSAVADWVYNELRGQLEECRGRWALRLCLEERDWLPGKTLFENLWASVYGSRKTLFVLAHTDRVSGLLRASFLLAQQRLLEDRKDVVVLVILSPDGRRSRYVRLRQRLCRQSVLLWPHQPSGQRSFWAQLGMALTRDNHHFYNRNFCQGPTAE
Outline: as §1

[3] = biological target: T3, human TLR8 (Homo sapiens, UniProt Q9NR97); test: TLR8 inhibition reporter assay (HEK-Blue SEAP); conditions: cells overexpressing human TLR8, SEAP reporter, stimulated with R848 15.9 μM, 22 hour incubation
T3 construct: host or cells: HEK-Blue cells
T3 sequence (Q9NR97 27-1041): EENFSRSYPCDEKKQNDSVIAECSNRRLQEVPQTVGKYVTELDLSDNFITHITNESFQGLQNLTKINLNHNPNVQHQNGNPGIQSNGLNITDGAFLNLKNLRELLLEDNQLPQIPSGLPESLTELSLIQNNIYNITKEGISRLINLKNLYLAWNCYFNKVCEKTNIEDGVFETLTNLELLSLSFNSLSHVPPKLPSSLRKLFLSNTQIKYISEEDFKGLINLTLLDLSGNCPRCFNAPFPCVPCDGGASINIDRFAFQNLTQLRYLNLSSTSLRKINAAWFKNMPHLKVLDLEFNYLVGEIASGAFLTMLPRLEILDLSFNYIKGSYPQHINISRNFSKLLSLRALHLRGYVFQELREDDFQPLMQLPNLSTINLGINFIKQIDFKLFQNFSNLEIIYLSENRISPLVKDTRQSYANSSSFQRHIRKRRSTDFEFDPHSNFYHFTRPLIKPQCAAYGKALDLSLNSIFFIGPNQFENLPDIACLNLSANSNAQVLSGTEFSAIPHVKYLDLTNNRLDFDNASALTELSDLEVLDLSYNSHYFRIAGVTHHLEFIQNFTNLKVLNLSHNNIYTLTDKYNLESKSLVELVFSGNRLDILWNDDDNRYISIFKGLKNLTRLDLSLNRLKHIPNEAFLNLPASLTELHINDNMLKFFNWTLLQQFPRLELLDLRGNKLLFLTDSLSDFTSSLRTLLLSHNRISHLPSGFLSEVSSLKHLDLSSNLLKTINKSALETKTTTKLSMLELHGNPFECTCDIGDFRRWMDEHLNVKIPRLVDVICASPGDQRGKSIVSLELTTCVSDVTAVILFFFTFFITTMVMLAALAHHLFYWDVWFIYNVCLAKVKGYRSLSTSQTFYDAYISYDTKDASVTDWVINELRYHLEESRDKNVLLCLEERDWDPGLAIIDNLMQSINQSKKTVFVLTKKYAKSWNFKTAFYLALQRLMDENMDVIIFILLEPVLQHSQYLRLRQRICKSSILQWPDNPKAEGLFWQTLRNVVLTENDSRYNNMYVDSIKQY
Outline: as §1

Compound	IC50 [1]	IC50 [2]	IC50 [3]
CCc1c(-c2ccc(OC)c(OC)c2)[nH]c2cnc(C(=O)N3CC4CNCC4C3)nc12 (stereo not drawn) [Example 55, (6-(3,4-dimethoxyphenyl)-7-ethyl-5H-pyrrolo[3,2-d]pyrimidin-2-yl)(hexahydropyrrolo[3,4-c]pyrrol-2(1H)-yl)methanone]	1 to 50 µM	1 to 50 µM	1 to 50 µM
CCc1c(-c2ccc(OC)c(OC)c2)[nH]c2cnc(C(=O)NC3CCN(C(C)C)CC3)nc12 [Example 56, 6-(3,4-diunethoxyphenyl)-7-ethyl-N-(1-isopropylpiperidin-4-yl)-5H-pyrrolo[3,2-d]pyrimidine-2-carboxamide]	1 to 50 µM	> 50 µM	1 to 50 µM
COc1cc(-c2[nH]c3cnc(C4CCN(CC#N)CC4)nc3c2C(C)C)cn2ncnc12 [Example 59]	< 0.1 µM	0.1 to 1 µM	< 0.1 µM

The next lines start with the values.

IC50 [1]	IC50 [2]	IC50 [3]	Compound
0.1 to 1 µM	1 to 50 µM	< 0.1 µM	CCc1c(-c2ccc(OC)c(OC)c2)[nH]c2cnc(C3CCN(Cc4nc(C)c[nH]4)CC3)nc12 [Example 52, 6-(3,4-dimethoxyphenyl)-7-ethyl-2-(1-((4-methy 1H-imidazol-2-yl)methyl)piperidin-4-yl)-5H-pyrrolo[3,2-d]pyrimidine]
> 50 µM	> 50 µM	1 to 50 µM	CCc1c(-c2ccc(OC)c(OC)c2)[nH]c2cnc(-c3nnc(N)o3)nc12 [Example 53, 5-(6-(3,4-dimethoxyphenyl)-7-ethyl-5H-pyrrolo[3,2-d]pyrimidin-2-yl)-1,3,4-oxadiazol-2-amine]
